{"source": "patent US20190212343A1", "about": "“METHODS FOR THE TREATMENT OF DISORDERS RELATED TO PHOSPHORYLATION OF HISTONES” (H. LEE MOFFITT CANCER CENTER AND RESEARCH INSTITUTE, INC., priority 2014, published 2019)", "key": {"[1]": {"system": "pY88-H4 epigenetic marks in AR gene", "test": "ChIP with pY88-H4 antibodies and real time PCR at the AR gene", "type": "cell-based, human", "details": "LNCaP and VCaP cells grown in the absence of androgen", "method": "FIGS. 10A-10C show H4 Y88-phosphorylation occurs within and downstream of AR gene. (FIG. 10A) The human AR gene and two pY88-H4 binding sites are shown. (FIG. 10B) VCaP and (FIG. 10C) LNCaP cells treated with ACK1 inhibitor; ChIP was performed followed by qPCR using primers corresponding to promoter, intron 2, 3′UTR or control region. VCaP: *p<0.05, **p<0.05; LNCaP: *p<0.05, **p<0.05\nTo determine whether ACK1 modifies chromatin at AR gene locus, LNCaP and VCaP cells grown in the absence of androgen and were treated with AIM-100. Chromatin immunoprecipitation (ChIP) was performed using pY88-H4 antibodies, followed by real time PCR with primers corresponding to the AR promoter, intron 2 and 3′UTR (FIG. 10A). […] These marks were also deposited at 3′UTR of the AR gene but not at the promoter region (FIGS. 10B and 10C)."}, "[2]": {"system": "histone H3 Tyr99-phosphorylation (ACK1)", "test": "Histone H3 Tyr99-phosphorylation in HEK293 cells (pY99-H3 immunoprecipitation / H3 immunoblot)", "type": "cell-based", "details": "HEK293 cells", "method": "FIGS. 3A-3E show Ack1 phosphoryltes H3 at Tyr99 residue. […] (FIG. 3B) HEK293 cells co-expressing Myc-tagged Ack1 (WT) or KD mutant ACK1 and FLAG-tagged H3 or Y99F mutant […] were serum-starved (24h) and lysates were immunoprecipitated with pY99-H3 antibodies followed by immunoblotting with FLAG antibody (top panel). (FIG. 3C) HEK293 cells were treated with EGF ligand for indicated time points. Equal amounts of lysates were immunoprecipitated pY99-H3 antibodies followed by with immunoblotting with H3 antibody (top panel). (FIG. 3D) HEK293 cells were treated with ACK1 inhibitor, AIM-100 (5 uM overnight) and/or EGF ligand 20 min. Equal amounts of lysates were immunoprecipitated pY99-H3 antibodies followed by with immunoblotting with H3 antibody (top panel). […] (FIG. 3E) HEK293 cells were treated with increasing concentrations of AIM-100 (1, 2, 3 and 5 μM). Equal amounts of lysates were immunoprecipitated pY99-H3 antibodies followed by with immunoblotting with H3 antibody (top panel).\nThe Tyrosine99 or Y99 site in H3 protein is evolutionarily conserved (FIG. 3A). To examine whether H3 is ACK1 kinase substrate, HEK293 cells were co-transfected with HA-tagged ACK1 and FLAG-tagged H3 or FLAG-tagged Y99F mutant H3 expressing constructs. ACK I specifically phosphorylated H3 protein, but not the Y99F mutant protein (FIG. 3B). […]"}}, "note": "“Also recorded” adds a separate entry of the source.", "data": [{"smiles": "c1ccc(-c2oc3ncnc(NC[C@@H]4CCCO4)c3c2-c2ccccc2)cc1", "note": "[AIM-100]", "values": [{"measurement": "pY88-H4 epigenetic marks at AR gene (intron 2, 3′UTR)", "setting": "[1]", "value": "erased"}, {"measurement": "concentration resulting in complete loss of pY99-H3", "setting": "[2]; increasing concentrations of inhibitor", "value": 0.5, "unit": "μM"}, {"measurement": "histone H3 Tyr99-phosphorylation", "setting": "[2]; inhibitor 5 uM overnight, EGF ligand 20 min", "value": "complete loss of histone H3 Tyr99-phosphorylation; also recorded: suppressed histone H3 Tyr99-phosphorylation"}]}]}
